Measurements published in patent US20040087602A1, “Stabilized brivudine topical formulations” (priority 2001, published 2004).
Several values for one entry are separate records, joined by “and”; a condition that tells them apart may be missing. Equal values may be shown once.

How the values were obtained:
13 clinical VZV strains = conditions: mean of 13 clinical VZV strains, in vitro; cited from earlier work
[1] = tested on: 23 clinical HSV-1 strains; conditions: mean of 23 clinical HSV-1 strains, in vitro; cited from earlier work
[2] = photodegradation according to ICH guideline CPMP/ICH/279/95; format: physicochemical; conditions: unpacked samples without stabilizer, 9.6 hours at 49.5 W/m^2 (dose 475 Wh/m^2)
Excerpt: The degradation of brivudine was investigated according to the ICH (International Conference on Harmonization) guideline CPMP/ICH/279/95. […] The brivudine content decreases from about 100% to about 70% after irradiation. At the same time the samples show an increase of known and unknown impurities of about 30%.

[3] = photo-stabilization test of cream, UV-lamp irradiation; format: physicochemical; conditions: 2 hours UV-lamp
Description: Studies of photo-stabilization were conducted encapsulating the active ingredient in cyclodextrin-complexes (e.g. α-, β-, γ-cyclodextrin-complexes) or adding different stabilizers. Known photo-stabilizers like anti-oxidants (e.g. propylgallate, alfa-liponic acid), chemical UV-filters (e.g. octyl triazone) and pigments (titanium dioxide, zinc oxid, iron oxid yellow) were used. The efficiency of photo-stabilization was tested by determination of the content of brivudine after 2 hours of irradiation with UV-lamp (dose of 1 MED [Minimal […] dose, 24.8 Wh/m^2, UVA-light]. UVA-light was applied directly to the cream without primary packaging The higher the content of unchanged brivudine after irradiation, the better the photo-stability. […] The pigment iron oxide yellow at a concentration 20% w/w also gave about 85% brivudine content.

[4] = tested on: 20 clinical isolates (HSV-1); conditions: two similar assays, one value per assay; cited from earlier work

Row | SMILES | mean IC50 in 13 clinical VZV strains (13 clinical VZV strains) | mean IC50 in a panel of 23 clinical HSV-1 strains [1] | increase of known and unknown impurities [2] | brivudine content after irradiation ([2]; from about 100%) | brivudine content after irradiation ([3]; iron oxide yellow 20% w/w, 1 MED) | brivudine final content after irradiation ([3]; titanium dioxide 20% w/w, 1 MED) | brivudine content after irradiation, % of the initial concentration ([3]; without photo-stabilizer, 5% w/w brivudine cream, 1 MED (24.8 Wh/m^2, UVA)) | mean IC50 in a panel of 20 clinical isolates [4]
1 | Nc1nc2c(ncn2COCCO)c(=O)[nH]1 [acyclovir] | 0.2 µg/mL | 0.92 µg/mL |  |  |  |  |  | 
2 | O=c1[nH]c(=O)n([C@H]2C[C@H](O)[C@@H](CO)O2)cc1/C=C/Br [brivudine, (E)-5-(2-bromovinyl)-2′-deoxyuridine] | 0.001 µg/mL | 0.52 µg/mL | about 30% | about 70% | about 85% | about 85% | about 40% | 
3 | Nc1nc2c(ncn2CCC(CO)CO)c(=O)[nH]1 [penciclovir] | 0.91 µg/mL |  |  |  |  |  |  | 0.6 µg/mL and 0.8 µg/mL
